Experimental data as given in patent publication US9791456B2, “Method for measuring ATR inhibition mediated increases in DNA damage” (Vertex Pharmaceuticals Incorporated, priority 2012, dated 2017).
Each block holds one compound with its values, some of them ahead of it.

Columns and labels:
Format in all cases: cell-based
[1] = system: pChk1^Ser345 and γH2AX in PBMCs; assay: Evaluation of optimal 4-nitroquinoline concentration in PBMCs from treated human whole blood, immunofluorescence; settings: 240 μM 4-nitroquinoline, 2 hours
Description: Blood from healthy volunteers was collected by venepuncture into EDTA-coated blood collection tubes. 2 mls of blood per treatment was transferred into 1 well of a 6-well plates already containing 2 mls PBS containing 2% (v/v) FBS and DMSO or 4-nitroquinoline (60, 120, 240, 480 μM final concentration). Following 2 hours incubation at 37° C. the blood mixture was transferred into 15 ml falcon tubes containing 2 mls FICOLL-PAQUE PLUS™ and the PBMCs separated using centrifugation through a FICOLL-PAQUE PLUS™ separation gradient. PBMCs were collected and washed twice using 10 mls PBS and resuspended in 1 ml PBS. PBMCs were counted using a haemocytometer and 1×10^5 PBMCs were centrifuged onto microscope slides using a CYTOSPIN 2™ centrifuge (Shandon) for 5 minutes at 450 rpm. Cells were fixed using 4% (w/v) paraformaldehyde for 20 minutes and permeablised using 0.5% (v/v) Triton-X-100 for 30 minutes. […] These were detected using the appropriate secondary antibodies diluted in 1% (w/v) BSA in PBS: anti-rabbit AlexaFluor 546 (Invitrogen, 1:1000) and anti-mouse AlexaFluor 546 (Invitrogen, 1:1000). […] Mean nuclear fluorescence for at least 50 nuclei was measured using Image) software (National Institutes of Health, USA) and the data analysed using GraphPad Prism software version 6.0.

[2] = system: ATR-dependent phosphorylation events; assay: 4-nitroquinoline induction of ATR-dependent phosphorylation events in cell lines and isolated PBMCs
Description: PBMCs were purified from fresh whole human blood using FICOLL-PAQUE™ density gradient centrifugation. Cells were counted and seeded at 5×10(5) per well in a round bottom 96 well plate in RPMI medium supplemented with 10% foetal calf serum (FCS) and penicillin/streptomycin/glutamine (PSQ). […] Washed cells were then fixed with 4% paraformaldehyde for 10 min, permeabilised with 0.5% Triton X-100 for 10 min and analysed for Histone H2AX S139 phosphorylation by flow cytometry on the using 1:200 diluted anti-γH2AX primary antibody clone JBW301 (Millipore), 1:500 goat anti-mouse Alexa Fluor488 (Invitrogen) and propidium iodide DNA staining.
Blood from healthy volunteers was collected by venepuncture into EDTA-coated blood collection tubes. […] PBMCs were collected using centrifugation, washed in 1 ml PBS then resuspended in 1 ml PBS before being counted using a haemocytometer. […] These were detected using the appropriate secondary antibodies diluted in 1% (w/v) BSA in PBS for 1 hour at room temperature protected from the light: anti-rabbit AlexaFluor 488 (Invitrogen, 1:1000) and anti-mouse AlexaFluor 546 (Invitrogen, 1:1000). […] Mean nuclear fluorescence for at least 50 nuclei was measured using ImageJ software (National Institutes of Health, USA) and the data analysed using GraphPad Prism software version 6.0. […]

[3] = system: pChk1^Ser345 and γH2AX in MCF7 cells; assay: Evaluation of optimal 4-nitroquinoline concentration in MCF7 cells, immunofluorescence; settings: 0.1-10 μM 4-nitroquinoline, 2 hours
Description: Coverslips were sterilised in methanol and placed in the bottom of a 6-well culture dish. 2×10^5 MCF7 cells were seeded into each well of a 6-well culture dish in culture medium (RPMI-1640 with 10% FBS and 1% penicillin and streptomycin) and allowed to adhere for 24 hours. Medium was replaced by fresh medium containing 4-nitroquinoline (0.1-10 μM) and incubated at 37° C. for 2 hours. Cells were washed in PBS, fixed using 4% (w/v) paraformaldehyde for 20 minutes at room temperature and permeablised using 0.5% (v/v) Triton-X-100 for 30 minutes at room temperature. Permeablised cells were blocked using 10% (v/v) goat serum and 5% (w/v) BSA in PBS for 1 hour, the coverslips removed and subjected to immunofluorescent analysis using primary antibodies diluted in 1% (w/v) BSA in PBS overnight at 4° C.: rabbit anti-pChk1^Ser345 (133D3, Cell Signaling Technology, 1:300) and mouse anti-phospho-Histone H2AX^Ser139 (JBW301, Millipore, 1:1000). These were detected using the appropriate secondary antibodies diluted in 1% (w/v) BSA in PBS for 1 hour at room temperature protected from light: anti-rabbit AlexaFluor 546 (Invitrogen, 1:1000) and anti-mouse AlexaFluor 546 (Invitrogen, 1:1000). […] Mean nuclear fluorescence for at least 50 nuclei was measured using Image) software (National Institutes of Health, USA) and the data analysed using GraphPad Prism software version 6.0.

ATR [4] = target: T1, ATR (Homo sapiens, UniProt Q13535); assay: ATR inhibition in purified PBMCs from human whole blood after DNA damaging agents, immunofluorescence; settings: UV or 4-nitroquinoline, 10 μM VE-821
T1 construct: PBMCs were purified from fresh whole human blood; endogenous in cells; host or cells: human PBMCs / lymphocytes from fresh whole blood of healthy volunteers
T1 sequence (Q13535 whole entry): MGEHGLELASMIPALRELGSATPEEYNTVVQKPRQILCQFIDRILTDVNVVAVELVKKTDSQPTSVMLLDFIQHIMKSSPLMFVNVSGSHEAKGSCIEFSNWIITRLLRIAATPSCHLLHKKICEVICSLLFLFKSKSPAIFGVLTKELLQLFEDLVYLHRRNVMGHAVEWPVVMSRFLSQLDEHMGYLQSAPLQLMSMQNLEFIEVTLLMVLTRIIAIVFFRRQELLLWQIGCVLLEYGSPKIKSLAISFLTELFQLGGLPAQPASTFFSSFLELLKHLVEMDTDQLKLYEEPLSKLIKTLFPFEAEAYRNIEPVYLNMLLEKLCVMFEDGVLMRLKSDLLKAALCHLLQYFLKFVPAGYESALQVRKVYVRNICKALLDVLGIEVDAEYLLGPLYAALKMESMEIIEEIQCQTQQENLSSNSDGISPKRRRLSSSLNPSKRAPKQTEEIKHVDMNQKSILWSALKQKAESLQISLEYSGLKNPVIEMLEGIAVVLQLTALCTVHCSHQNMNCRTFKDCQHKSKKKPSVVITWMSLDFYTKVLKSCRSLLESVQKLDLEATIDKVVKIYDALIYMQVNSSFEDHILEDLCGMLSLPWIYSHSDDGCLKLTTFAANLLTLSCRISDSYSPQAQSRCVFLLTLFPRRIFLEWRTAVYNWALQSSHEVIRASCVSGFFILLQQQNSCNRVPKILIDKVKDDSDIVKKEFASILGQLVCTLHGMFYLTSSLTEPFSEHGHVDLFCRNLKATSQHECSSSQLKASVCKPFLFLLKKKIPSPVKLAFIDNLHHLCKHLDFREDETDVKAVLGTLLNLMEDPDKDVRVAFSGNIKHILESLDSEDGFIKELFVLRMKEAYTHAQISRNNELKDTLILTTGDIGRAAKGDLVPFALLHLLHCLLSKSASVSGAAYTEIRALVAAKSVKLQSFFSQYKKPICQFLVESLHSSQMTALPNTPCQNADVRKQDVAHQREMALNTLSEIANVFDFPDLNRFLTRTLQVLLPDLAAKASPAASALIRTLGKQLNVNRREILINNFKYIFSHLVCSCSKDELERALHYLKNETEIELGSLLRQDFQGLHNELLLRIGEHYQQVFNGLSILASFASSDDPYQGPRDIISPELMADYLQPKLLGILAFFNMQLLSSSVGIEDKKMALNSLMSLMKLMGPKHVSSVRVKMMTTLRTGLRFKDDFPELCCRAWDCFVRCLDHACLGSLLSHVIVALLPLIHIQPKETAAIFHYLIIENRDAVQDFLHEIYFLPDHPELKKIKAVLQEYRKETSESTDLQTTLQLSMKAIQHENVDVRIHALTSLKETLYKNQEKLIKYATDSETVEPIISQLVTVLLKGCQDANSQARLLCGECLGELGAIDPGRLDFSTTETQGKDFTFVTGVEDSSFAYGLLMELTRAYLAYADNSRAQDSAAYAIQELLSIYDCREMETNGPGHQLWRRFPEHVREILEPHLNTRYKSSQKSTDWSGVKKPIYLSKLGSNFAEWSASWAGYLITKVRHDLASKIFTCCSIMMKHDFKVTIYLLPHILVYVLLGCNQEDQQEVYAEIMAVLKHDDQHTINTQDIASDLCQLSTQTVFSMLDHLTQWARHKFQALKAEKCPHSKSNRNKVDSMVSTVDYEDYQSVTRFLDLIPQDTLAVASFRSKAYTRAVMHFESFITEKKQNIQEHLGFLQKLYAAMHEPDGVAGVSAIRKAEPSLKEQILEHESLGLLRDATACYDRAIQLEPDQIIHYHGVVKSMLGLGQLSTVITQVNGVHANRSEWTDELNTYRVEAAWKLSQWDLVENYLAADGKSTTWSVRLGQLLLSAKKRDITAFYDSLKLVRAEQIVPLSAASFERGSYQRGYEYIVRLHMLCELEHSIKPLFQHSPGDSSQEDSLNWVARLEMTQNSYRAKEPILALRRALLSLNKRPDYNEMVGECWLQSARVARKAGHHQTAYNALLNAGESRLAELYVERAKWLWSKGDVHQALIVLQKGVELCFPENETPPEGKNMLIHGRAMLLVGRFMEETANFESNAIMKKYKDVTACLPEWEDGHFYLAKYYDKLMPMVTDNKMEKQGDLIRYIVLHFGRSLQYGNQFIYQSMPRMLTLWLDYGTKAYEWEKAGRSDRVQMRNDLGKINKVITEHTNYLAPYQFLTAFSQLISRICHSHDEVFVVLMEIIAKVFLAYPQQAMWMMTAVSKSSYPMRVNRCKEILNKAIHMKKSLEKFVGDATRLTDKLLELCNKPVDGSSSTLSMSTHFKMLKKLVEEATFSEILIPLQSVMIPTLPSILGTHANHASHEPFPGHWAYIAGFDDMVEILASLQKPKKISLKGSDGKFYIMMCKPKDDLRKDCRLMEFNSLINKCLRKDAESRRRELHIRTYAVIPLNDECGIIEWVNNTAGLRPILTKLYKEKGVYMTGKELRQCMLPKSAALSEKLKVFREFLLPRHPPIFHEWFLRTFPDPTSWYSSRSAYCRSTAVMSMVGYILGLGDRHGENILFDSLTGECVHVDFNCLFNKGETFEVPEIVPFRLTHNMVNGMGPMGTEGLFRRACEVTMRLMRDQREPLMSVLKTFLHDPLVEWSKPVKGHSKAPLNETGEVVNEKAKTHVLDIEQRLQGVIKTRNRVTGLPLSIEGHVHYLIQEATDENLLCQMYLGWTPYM
T1 sequence (Q8WXE1 whole entry partner): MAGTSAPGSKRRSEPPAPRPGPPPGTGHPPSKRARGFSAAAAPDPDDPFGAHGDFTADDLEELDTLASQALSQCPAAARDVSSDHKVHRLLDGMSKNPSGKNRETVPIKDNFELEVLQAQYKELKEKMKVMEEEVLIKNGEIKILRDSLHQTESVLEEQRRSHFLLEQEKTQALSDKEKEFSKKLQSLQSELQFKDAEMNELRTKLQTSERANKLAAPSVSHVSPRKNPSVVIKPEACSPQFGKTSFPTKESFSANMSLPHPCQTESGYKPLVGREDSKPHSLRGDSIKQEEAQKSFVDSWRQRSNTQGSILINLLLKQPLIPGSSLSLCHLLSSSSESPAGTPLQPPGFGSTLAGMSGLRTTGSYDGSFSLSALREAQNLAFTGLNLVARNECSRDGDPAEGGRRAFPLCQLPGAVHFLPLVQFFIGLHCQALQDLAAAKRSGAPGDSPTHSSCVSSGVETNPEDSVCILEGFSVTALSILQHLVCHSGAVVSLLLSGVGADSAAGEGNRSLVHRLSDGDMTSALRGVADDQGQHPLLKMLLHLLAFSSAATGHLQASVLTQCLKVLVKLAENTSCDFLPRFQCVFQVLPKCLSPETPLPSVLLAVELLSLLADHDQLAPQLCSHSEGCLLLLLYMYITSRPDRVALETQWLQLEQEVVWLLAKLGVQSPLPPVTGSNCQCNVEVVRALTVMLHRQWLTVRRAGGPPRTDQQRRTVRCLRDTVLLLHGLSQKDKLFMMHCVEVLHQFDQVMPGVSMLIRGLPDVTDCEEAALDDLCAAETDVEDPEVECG
Description: Blood from healthy volunteers was collected by venepuncture into EDTA-coated blood collection tubes. 2×10 ml aliquots of blood was diluted 1:1 in PBS and transferred into 50 ml falcon tubes containing 10 mls FICOLL-PAQUE PLUS™ (GE Healthcare). PBMCs were separated using centrifugation through a FICOLL-PAQUE PLUS™ separation gradient. PBMCs from each tube were collected separately and washed twice with 20 mls PBS before being pooled and resuspended in 20 mls culture medium (RPMI-1640 with 10% FBS). 2 mls of PBMC suspension per treatment were transferred into one well of a 6-well culture dish. […] PBMCs were collected using centrifugation, washed in 1 ml PBS then resuspended in 1 ml PBS before being counted using a haemocytometer. 1×10^5 PBMCs were centrifuged onto microscope slides using a CYTOSPIN 2™ centrifuge (Shandon) for 5 minutes at 450 rpm. […] These were detected using the appropriate secondary antibodies diluted in 1% (w/v) BSA in PBS for 1 hour at room temperature protected from the light: anti-rabbit AlexaFluor 488 (Invitrogen, 1:1000) and anti-mouse AlexaFluor 546 (Invitrogen, 1:1000). […] Mean nuclear fluorescence for at least 50 nuclei was measured using ImageJ software (National Institutes of Health, USA) and the data analysed using GraphPad Prism software version 6.0.

ATR [5] = target: T1, ATR; assay: ATR inhibition in PBMCs after treatment of human whole blood with UV, immunofluorescence; settings: 50 J/m^2 UV, 10 μM VE-821
Description: Blood from healthy volunteers was collected by venepuncture into EDTA-coated blood collection tubes. […] Following 1 hour incubation at 37° C. and 5% CO2, blood was exposed to 50 J/m^2 UV light. Following 1 hour further incubation the blood mixture was transferred into 15 ml falcon tubes containing 2 mls FICOLL-PAQUE PLUS™ and the PBMCs separated using centrifugation through a FICOLL-PAQUE PLUS™ separation gradient. PBMCs were collected and washed twice using 10 mls PBS and resuspended in 1 ml PBS. PBMCs were counted using a haemocytometer and 1×10^5 PBMCs were centrifuged onto microscope slides using a CYTOSPIN 2™ centrifuge (Shandon) for 5 minutes at 450 rpm. Cells were fixed using 4% (w/v) paraformaldehyde for 20 minutes and permeablised using 0.5% (v/v) Triton-X-100 for 30 minutes. […] These were detected using the appropriate secondary antibodies diluted in 1% (w/v) BSA in PBS for 1 hour at room temperature protected from the light: anti-rabbit AlexaFluor 488 (Invitrogen, 1:1000) and anti-mouse AlexaFluor 546 (Invitrogen, 1:1000). […] Mean nuclear fluorescence for at least 50 nuclei was measured using Image) software (National Institutes of Health, USA) and the data analysed using GraphPad Prism software version 6.0.

[6] = system: pChk1^Ser345 in MCF7 cells; assay: 4-nitroquinoline induced phosphorylation of Chk1 in MCF7 cells over time, immunofluorescence; settings: Homo sapiens, 2.5 μM 4-nitroquinoline, 10 μM VE-821, for up to 3 hr
Description: (§1) Coverslips were sterilised in methanol and placed in the bottom of a 6-well culture dish. 2×10^5 MCF7 cells were seeded into each well of a 6-well culture dish in culture medium (RPMI-1640 with 10% FBS and 1% penicillin and streptomycin) and allowed to adhere for 24 hours. […] Cells were incubated at 37° C. for 0.5, 1 and 3 hours at which points they were washed with 2 mls PBS and fixed. Cells were fixed using 4% (w/v) paraformaldehyde for 20 minutes at room temperature and permeablised using 0.5% (v/v) Triton-X-100 for 30 minutes at room temperature. […] These were detected using the appropriate secondary antibodies diluted in 1% (w/v) BSA in PBS for 1 hour at room temperature protected from light: anti-rabbit AlexaFluor 546 (Invitrogen, 1:1000) or anti-mouse AlexaFluor 546 (Invitrogen, 1:1000). Coverslips were washed three times for 10 minutes in PBS after incubation with each antibody. DNA was stained using […] with DAPI (Vector Laboratories). Images were captured using a Zeiss LSM 700 confocal microscope (Zeiss) with Zen 2009 software (Zeiss) using and ×40 lens and wavelengths of 405 nm and 561 nm. Mean nuclear fluorescence for at least 50 nuclei was measured using Image) software (National Institutes of Health, USA) and the data analysed using GraphPad Prism software version 6.0.

γH2AX in MCF7 cells [7] = assay: 4-nitroquinoline induced phosphorylation of H2AX in MCF7 cells over time, immunofluorescence; settings: Homo sapiens, 2.5 μM 4-nitroquinoline
Description: as §1

[8] = system: pChk1^Ser345 in MCF7 cells; assay: UV induced phosphorylation of Chk1 in MCF7 cells over time, immunofluorescence; settings: 20 J/m^2 UV
Description: (§2) Coverslips were sterilised in methanol and placed in the bottom of a 6-well culture dish. 2×10^5 MCF7 cells were seeded into each well of a 6-well culture dish in culture medium (RPMI-1640 with 10% FBS and 1% penicillin and streptomycin) and allowed to adhere for 24 hours. […] Cells were exposed to 20 J/m^2 UV using a […]-2400' (Stratagene). Cells were incubated at 37° C. for 0.5, 1 and 3 hours at which points they were washed with 2 mls PBS and fixed. Cells were fixed using 4% (w/v) paraformaldehyde for 20 minutes at room temperature and permeablised using 0.5% (v/v) Triton-X-100 for 30 minutes at room temperature. […] These were detected using the appropriate secondary antibodies diluted in 1% (w/v) BSA in PBS for 1 hour at room temperature protected from light: anti-rabbit AlexaFluor 546 (Invitrogen, 1:1000) or anti-mouse AlexaFluor 546 (Invitrogen, 1:1000). Coverslips were washed three times for 10 minutes in PBS after incubation with each antibody. DNA was stained using […] with DAPI (Vector Laboratories). Images were captured using a Zeiss LSM 700 confocal microscope (Zeiss) with Zen 2009 software (Zeiss) using and ×40 lens and wavelengths of 405 nm and 561 nm. Mean nuclear fluorescence for at least 50 nuclei was measured using Image) software (National Institutes of Health, USA) and the data analysed using GraphPad Prism software version 6.0.

γH2AX in MCF7 cells [9] = assay: UV induced phosphorylation of H2AX in MCF7 cells over time, immunofluorescence; settings: 20 J/m^2 UV
Description: as §2

ATR [10] = target: T2, ATR (Mus musculus, UniProt Q9JKK8); assay: ATR inhibition in whole mouse blood ex vivo: 4-nitroquinoline stimulated H2AX phosphorylation in lymphocytes, flow cytometry
T2 construct: Whole human or mouse blood was collected in heparinised tubes; endogenous in cells; host or cells: lymphocytes in whole mouse blood ex vivo
Description: The samples were mixed by agitation, incubated for 10 min at 37° C. and stimulated with 62 uM (human) or 124 uM (mouse) 4-nitroquinoline for 1 h at 37° C. The samples were then fixed and red blood cells were lysed using Lyse/Fix Buffer (BD) for 5-10 min and white blood cells were collected by centrifugation according to the manufacturer's instructions. The samples were then transferred into 96 well round bottom plates and permeabilised using Triton X-100 according to method i). H2AX phosphorylation was then analysed by flow cytometry according to method i) with selection of lymphocytes using either standard scatterplot gating or CD3 staining. For specific analysis of H2AX phosphorylation in CD3 positive lymphocytes, cells were stained with 1:2.5 diluted PE-conjugated anti-human CD3 (BD) (human) and 1:50 diluted APC-conjugated anti-mouse CD3 (BD) (mouse) in place of propidium iodide and analyses of P-H2AX were performed on the CD3-positive population.

ATR [11] = target: T1, ATR; assay: ATR inhibition in PBMCs after treatment of human whole blood with 4-nitroquinoline, immunofluorescence; settings: 240 μM 4-nitroquinoline 1 and 2 hr, 1 or 10 μM compound
Description: Blood from healthy volunteers was collected by venepuncture into EDTA-coated blood collection tubes. […] Following 1 or 2 hours incubation (as indicated) at 37° C. the blood mixture was transferred into 15 ml falcon tubes containing 2 mls FICOLL-PAQUE PLUS™ and the PBMCs separated using centrifugation through a FICOLL-PAQUE PLUS™ separation gradient. PBMCs were collected and washed twice using 10 mls PBS and resuspended in 1 ml PBS. PBMCs were counted using a haemocytometer and 1×10^5 PBMCs were centrifuged onto microscope slides using a CYTOSPIN 2™ centrifuge (Shandon) for 5 minutes at 450 rpm. Cells were fixed using 4% (w/v) paraformaldehyde for 20 minutes and permeablised using 0.5% (v/v) Triton-X-100 for 30 minutes. […] These were detected using the appropriate secondary antibodies diluted in 1% (w/v) BSA in PBS: anti-rabbit AlexaFluor 546 (Invitrogen, 1:1000) and anti-mouse AlexaFluor 546 (Invitrogen, 1:1000). […] Mean nuclear fluorescence for at least 50 nuclei was measured using Image) software (National Institutes of Health, USA) and the data analysed using GraphPad Prism software version 6.0.

SMILES: O=[N+]([O-])c1ccnc2ccccc12 [4-nitroquinoline]
- phosphorylation of pChk1^Ser345 and γH2AX (biomarker induction) [1]: improved phosphorylation
- concentration adequate to induce ATR-dependent phosphorylation events [2]: ≤ 5 µM
- concentration required for pChk1^Ser345 and γH2AX induction compared with whole blood [3]: lower concentrations were required

SMILES: CS(=O)(=O)c1ccc(-c2cnc(N)c(C(=O)Nc3ccccc3)n2)cc1 [VE-821]
- level of pChk1^Ser345 signal after co-administering compound (ATR [4]): reduction
- level of γH2AX signal after co-administering compound (ATR [4]): reduction
- inhibition of UV-induced pChk1^Ser345 (ATR [5]): significant inhibition
- inhibition of UV-induced γH2AX (ATR [5]): significant inhibition
- inhibition at 10 µM [6]: > 70%
- inhibition at 10 µM (γH2AX in MCF7 cells [7]; 10 μM VE-821, at 1 hr): 70%
- inhibition at 10 µM (γH2AX in MCF7 cells [7]; 10 μM VE-821, at 3 hr): 40%
- inhibition (of UV-induced Chk1 phosphorylation) ([8]; at 0.5 hr): 70%
- inhibition (of UV-induced Chk1 phosphorylation) ([8]; at 3 hr): 55%
- inhibition of γH2AX (γH2AX in MCF7 cells [9]; at 0.5 hr): 80%
- inhibition of γH2AX (γH2AX in MCF7 cells [9]; at 3 hr): < 20%

- IC50 (ATR [10]): 1 µM
SMILES: CNCc1ccc(-c2cc(-c3nc(-c4ccc(S(=O)(=O)C(C)C)cc4)cnc3N)on2)cc1 [VE-822]
- inhibition of 4-nitroquinoline-induced increases in γH2AX (ATR [11]): inhibited by VE-822 in a concentration-dependent manner
